Usually IC50 stands for the concentration that gives 50% inhibition. The low end stands for higher potency, the high end for lower potency. By bioavailability is commonly meant dose-corrected exposure relative to a reference, in per cent. In general, half-life refers to the time in which the quantity being followed falls by half. High values mean slow loss, low ones fast loss. The Cmax is the highest concentration seen after dosing. One may read the AUC as the area under the concentration-time curve, a measure of exposure. One may read the AUC(0-inf) as total exposure, with the tail of the curve extrapolated.

Results on 31 compounds are retold here after ChEMBL document CHEMBL1139093, “1,3-diaminopropan-2-ol sulfonamides as potent and selective inhibitors of the glycine transporter type 1” (Bioorg Med Chem Lett, 2007).

Data set [1] has as its target T1, Sodium- and chloride-dependent glycine transporter 1 (Homo sapiens, UniProt P48067).
T1 sequence (P48067 whole entry): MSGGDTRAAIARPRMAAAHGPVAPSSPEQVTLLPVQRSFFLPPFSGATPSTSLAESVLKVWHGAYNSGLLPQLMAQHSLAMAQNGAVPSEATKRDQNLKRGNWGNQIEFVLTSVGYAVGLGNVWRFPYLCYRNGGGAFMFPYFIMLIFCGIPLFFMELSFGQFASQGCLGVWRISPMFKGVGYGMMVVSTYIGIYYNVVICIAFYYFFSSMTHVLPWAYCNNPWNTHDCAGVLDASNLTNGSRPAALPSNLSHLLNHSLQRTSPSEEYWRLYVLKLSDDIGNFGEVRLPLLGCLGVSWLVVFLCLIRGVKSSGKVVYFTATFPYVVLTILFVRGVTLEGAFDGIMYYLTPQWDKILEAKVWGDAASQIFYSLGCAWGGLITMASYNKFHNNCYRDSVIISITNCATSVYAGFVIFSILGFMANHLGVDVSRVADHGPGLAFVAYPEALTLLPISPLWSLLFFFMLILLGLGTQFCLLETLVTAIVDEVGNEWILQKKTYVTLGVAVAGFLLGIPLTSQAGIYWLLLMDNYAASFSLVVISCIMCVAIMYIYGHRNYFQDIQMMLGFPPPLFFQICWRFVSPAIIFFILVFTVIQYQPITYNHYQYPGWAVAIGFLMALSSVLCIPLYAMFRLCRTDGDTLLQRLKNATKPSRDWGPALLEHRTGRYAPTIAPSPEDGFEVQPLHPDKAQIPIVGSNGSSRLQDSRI
Description: (§1) Inhibition of [3H]glycine uptake in human GlyT1c expressed in HEK293 cells

The subject of data set [2] is Liver microsomes. The experiment in a line: Intrinsic clearance in rat liver microsome. The data set is classed as ADME. (In general: Liver microsomes are vesicles of endoplasmic reticulum, rich in cytochrome P450 enzymes.)
Data set [3] has as its system Liver microsomes. Kind of data set: Intrinsic clearance in human liver microsome. Format: ADME.
The next data set concerns the target Cytochrome P450 2D6 (Homo sapiens, UniProt P10635). The experiment in a line: Binding affinity to CYP2D6. Format: ADME.
Data set [4] is described as follows: Oral bioavailability in rat at 5 mg/kg. The note with it: in vivo. Format: ADME, organism-based.
The subject of data set [5] is Rattus norvegicus. The experiment in a line: Bioavailability in rat at 5 mg/kg, sc. The data set is classed as ADME, organism-based. Particulars: in vivo.
Data set [6] in a line: Half life in rat at 5 mg/kg, sc. Format: ADME, organism-based. Also on record: dose 5 mg/kg, route subcutaneous. The note with it: in vivo.
Data set [7] can be described thus: Cmax in rat at 5 mg/kg, sc. Particulars: in vivo. Also on record: dose 5 mg/kg, route subcutaneous. The data set is classed as ADME, organism-based.
In data set [8] the test system is Rattus norvegicus. Kind of data set: AUC (0 to infinity) in rat at 5 mg/kg, sc. Format: ADME, organism-based, Plasma. Also on record: time infinity, dose 5 mg/kg, route subcutaneous. Particulars: in vivo.
A short description of data set [9]: Plasma clearance in rat at 1 mg/kg, iv. Format: ADME, organism-based. Further details: dose 1 mg/kg, route intravenous.
The test system of a further data set is Brain. The experiment in a line: Drug level in rat brain at 5 mg/kg, sc. Also on record: dose 5 mg/kg, route subcutaneous. Particulars: in vivo. Format: ADME, organism-based.
A short description of data set [10]: Half life in rat at 1 mg/kg, iv. The data set is classed as ADME, organism-based. Further details: dose 1 mg/kg, route intravenous. Particulars: in vivo.
The test system of data set [11] is Rattus norvegicus. Kind of data set: AUC (0 to infinity) in rat plasma at 1 mg/kg, iv. Format: ADME, organism-based. Further details: time infinity, dose 1 mg/kg, route intravenous. The note with it: in vivo.
The nature of data set [12]: AUC (0 to infinity) in rat brain at 1 mg/kg, iv. Format: ADME, organism-based. Further details: time infinity, dose 1 mg/kg, route intravenous.
Data set [13] concerns the target T1, Sodium- and chloride-dependent glycine transporter 1. Particulars: hek293.
Description: as §1

Sequence of Cytochrome P450 2D6 (P10635 whole entry): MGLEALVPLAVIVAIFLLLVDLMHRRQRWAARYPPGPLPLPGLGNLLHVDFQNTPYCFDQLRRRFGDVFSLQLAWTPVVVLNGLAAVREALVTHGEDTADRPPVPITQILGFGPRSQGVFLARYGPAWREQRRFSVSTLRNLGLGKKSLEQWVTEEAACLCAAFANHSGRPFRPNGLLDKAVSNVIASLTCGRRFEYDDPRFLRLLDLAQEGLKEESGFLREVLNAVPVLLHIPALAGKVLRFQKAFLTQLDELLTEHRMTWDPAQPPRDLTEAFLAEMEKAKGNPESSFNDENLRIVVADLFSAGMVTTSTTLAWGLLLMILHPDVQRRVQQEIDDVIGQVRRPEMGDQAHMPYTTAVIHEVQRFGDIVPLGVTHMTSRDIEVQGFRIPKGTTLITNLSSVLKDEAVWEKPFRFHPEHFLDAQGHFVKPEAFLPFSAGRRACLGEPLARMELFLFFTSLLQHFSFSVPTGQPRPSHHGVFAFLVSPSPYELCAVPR

In [1], `O=S(=O)(NC[C@H](O)CN1CCCC1)c1cccc2ccccc12` had an IC50 of 3.16 µM.

In data set [1], `CC1CCCN1C[C@H](O)CNS(=O)(=O)c1cccc2ccccc12` (stereo partly drawn) gave an IC50 of 12.6 µM.

On to `CCCN(C[C@@H](O)CNS(=O)(=O)c1cccc2ccccc12)C(C)(C)C`, for which the IC50 in data set [1] is 1 µM.

`CCC1CCC(C)N(C[C@@H](O)CNS(=O)(=O)c2cccc3ccccc23)C1` (stereo partly drawn) gave an IC50 in [1] of 1 µM.

`CC1CC(C)N(C[C@@H](O)CNS(=O)(=O)c2ccc3ccccc3c2)C1` (stereo partly drawn) had an IC50 in [1] of 3.98 µM.

For the compound `CC1CC(C)N(C[C@@H](O)CNS(=O)(=O)c2cccc(Cl)c2Cl)C1` (stereo partly drawn), the IC50 in data set [1] is 2.51 µM.

In data set [1], `CC1CC(C)N(C[C@@H](O)CNS(=O)(=O)c2cc(Cl)sc2Cl)C1` (stereo partly drawn) gave an IC50 of 3.16 µM.

In turn, `Cc1cc(S(=O)(=O)NC[C@H](O)CN2CC(C)CC2C)c(C)cc1Cl` (stereo partly drawn) showed an IC50 in data set [1] of 3.16 µM.

In [1], `CCc1cc(Br)ccc1S(=O)(=O)NC[C@H](O)CN1CC(C)CC1C` (stereo partly drawn) showed an IC50 of 3.16 µM.

In data set [1], `CC1CCC(C)N1C[C@H](O)CNS(=O)(=O)c1cccc2ccccc12` (stereo partly drawn) had an IC50 of 7.94 µM.

As to `CC[C@H]1CCCCN1C[C@@H](O)CNS(=O)(=O)c1cccc2ccccc12`, the clearance in the data set with Liver microsomes [2] was 8 mL/min/g; in the data set on Liver microsomes [3], 8 mL/min/g; in [9], 18 mL/min/kg. This compound gave an Activity at Cytochrome P450 2D6 of 1.2 µM. The bioavailability in data set [4] came to 4%. The compound further came in with a F in the data set with Rattus norvegicus [5] of 95%. In addition, the half-life was 54 min in [6] and 60 min in data set [10]. In addition, the Cmax in [7] was determined as 564 ng/mL. In addition, the AUC with Rattus norvegicus [8] came to 1731 ng·h/mL; in the data set with Rattus norvegicus [11], 952 ng·h/mL. In the data set with Brain, this compound returned a Drug uptake of 564 ng/mL. The compound further yielded an AUC(0-inf) in [12] of 587 ng·h/mL.

For the compound `CC1CCCN(C[C@@H](O)CNS(=O)(=O)c2cccc3ccccc23)C1` (stereo partly drawn), the IC50 in [1] is 3.98 µM.

In [1], `CCCN(C[C@@H](O)CNS(=O)(=O)c1cccc2ccccc12)C(C)CC` (stereo partly drawn) gave an IC50 of 1.26 µM.

In the case of `CC1CCCCN1C[C@@H](O)CNS(=O)(=O)c1cccc2ccccc12` (stereo partly drawn), in [1], the IC50 was 0.316 µM.

In the case of `CC1CCC(C)N1C[C@@H](O)CNS(=O)(=O)c1cccc2ccccc12` (stereo partly drawn), in data set [1], 0.794 µM corresponded to half-maximal inhibition (IC50).

`CC1CCCN1C[C@@H](O)CNS(=O)(=O)c1cccc2ccccc12` (stereo partly drawn): the IC50 in data set [1] was 1 µM.

On to `O=S(=O)(NC[C@H](O)CN1CCCCC1)c1cccc2ccccc12`, for which half-maximal inhibition in data set [1] (IC50) was put at 3.16 µM.

Turning to `O=S(=O)(NC[C@H](O)CN1CCCC1C1CCCCC1)c1cccc2ccccc12` (single isomer, unassigned; isomer A), the “Log IC50” value in data set [13] was -5.2.

In data set [1], `CC(C)(C)C1CCCN1C[C@@H](O)CNS(=O)(=O)c1cccc2ccccc12` (single isomer, unassigned; isomer A) had an IC50 of 7.94 µM.

In turn, `CCC1CCCN1C[C@@H](O)CNS(=O)(=O)c1cccc2ccccc12` (single isomer, unassigned; isomer A) had an IC50 in [1] of 1.26 µM.

In turn, `CC(C)C1CCCCN1C[C@@H](O)CNS(=O)(=O)c1cccc2ccccc12` (single isomer, unassigned; isomer A) showed an IC50 in [1] of 3.98 µM.

`CC(C)CC1CCCN1C[C@@H](O)CNS(=O)(=O)c1cccc2ccccc12` (single isomer, unassigned; isomer A) gave an IC50 in data set [1] of 6.31 µM.

With `CC(C)C1CCCN1C[C@@H](O)CNS(=O)(=O)c1cccc2ccccc12` (single isomer, unassigned; isomer A), the IC50 in data set [1] was 1 µM.

For the compound `O=S(=O)(NC[C@H](O)CN1CCCC1C1CCCCC1)c1cccc2ccccc12` (single isomer, unassigned; isomer B), the IC50 in [1] was 6.31 µM.

Consider `CC(C)(C)C1CCCN1C[C@@H](O)CNS(=O)(=O)c1cccc2ccccc12` (single isomer, unassigned; isomer B), for which, in data set [1], 0.2 µM corresponded to half-maximal inhibition (IC50).

The compound `O=S(=O)(NC[C@H](O)CN1CCCC1C1CC1)c1cccc2ccccc12` (single isomer, unassigned; isomer B) had an IC50 in data set [1] of 0.501 µM.

As to `CCC1CCCN1C[C@@H](O)CNS(=O)(=O)c1cccc2ccccc12` (single isomer, unassigned; isomer B), in data set [1], half-maximal inhibition (IC50) was put at 1.58 µM.

Regarding `CC(C)CC1CCCN1C[C@@H](O)CNS(=O)(=O)c1cccc2ccccc12` (single isomer, unassigned; isomer B), half-maximal inhibition in data set [1] (IC50) was put at 2.51 µM.

As for `CC(C)C1CCCN1C[C@@H](O)CNS(=O)(=O)c1cccc2ccccc12` (single isomer, unassigned; isomer B), the IC50 in data set [1] is 0.2 µM.

In turn, `O=S(=O)(NC[C@H](O)CN1CCCC1C1CC1)c1cccc2ccccc12` (stereo in doubt) had an IC50 in [1] of 1.58 µM.

`CC(C)C1CCCCN1C[C@@H](O)CNS(=O)(=O)c1cccc2ccccc12` (stereo in doubt) had an IC50 in data set [1] of 0.631 µM.
